RMW and logPexp data for five compounds are collected here from PMC12472637, “Use of TLC and Computational Methods to Determine Lipophilicity Parameters of Selected Neuroleptics: Comparison of Experimental and Theoretical Studies” (Pharmaceuticals, 2025).

The structures appear in SMILES notation.

Data set [1] can be described thus: RP-TLC chromatographic parameter of lipophilicity (RMW), Soczewiński–Wachtmeister extrapolation. Type of data set: physicochemical. On the set-up: key: RM = log((1−Rf)/Rf), extrapolated via Soczewiński–Wachtmeister equation. The source says:
As part of the continuation of this study, we attempted to use the experimental, i.e., chromatographic method to determine the lipophilicity parameter of five commercially available neuroleptics: fluphenazine, triflupromazine, trifluoperazine, flupentixol and zuclopenthixol. As described in the Materials and Methods Section, we successfully applied thin-layer chromatography in a reverse-phase system (RP-TLC) and various systems containing chromatographic plates: RP-2F254, RP-8F254 and RP-18F254. […] The chromatographic parameter of lipophilicity RMW obtained under these conditions, using Soczewiński-Wachtmeister's equation, is presented in Table 5. […] Sufficient linearity of these relationships was confirmed by a high correlation coefficient (r), significant p-values, a low standard error of estimate and a high Fisher F-distribution value. […] The content of organic modifier varied from 40% to 90% in 5% increments. Five microliters of each sample solution was spotted as separate spots with a 5 mm width. Plates were developed at ambient temperature (20 ± 2 °C) to a distance of 70 mm in a horizontal chamber ([…], Switzerland) and then visualized under UV light (λ = 254 nm). All measurements were performed in triplicate. The mean value of the retardation factor (Rf) of each compound was used to calculate the RM values:(1) […] The characteristic of the obtained linear plots are given in the Supplementary Materials as Tables S2-S6.

Details of data set [2]: method as in earlier work. The conditions noted are these: logP in n-octanol-water, DrugBank; cited from earlier work.
[3] abbreviates: RP-2F254 plates, 1,4-dioxane–TRIS buffer (pH 7.4).
Where [4] appears, read: RP-2F254 plates, acetone–TRIS buffer (pH 7.4).
The mark [5] stands for this setting: RP-2F254 plates, acetonitrile–TRIS buffer (pH 7.4).
Where [6] appears, read: RP-8F254 plates, 1,4-dioxane–TRIS buffer (pH 7.4).
Where [7] appears, read: RP-8F254 plates, acetone–TRIS buffer (pH 7.4).
[8] abbreviates: RP-8F254 plates, acetonitrile–TRIS buffer (pH 7.4).
[9] abbreviates: RP-18F254 plates, 1,4-dioxane–TRIS buffer (pH 7.4).
[10] abbreviates: RP-18F254 plates, acetone–TRIS buffer (pH 7.4).
The mark [11] stands for this setting: RP-18F254 plates, acetonitrile–TRIS buffer (pH 7.4).

For the compound `OCCN1CCN(CC/C=C2/c3ccccc3Sc3ccc(C(F)(F)F)cc32)CC1` [Flupentixol, flupentixol], the RMW is reported as 2.782 in data set [1] (setting [3]); 2.782±0.094 in data set [1] (RP-2F254 plates, 1,4-dioxane–TRIS buffer (pH 7.4), listed as flupentixol); 2.829 in data set [1] (setting [4]); 2.829±0.194 in data set [1] (RP-2F254 plates, acetone–TRIS buffer (pH 7.4), listed as flupentixol); −0.427 in data set [1] (setting [5]); -0.427±0.153 in data set [1] (RP-2F254 plates, acetonitrile–TRIS buffer (pH 7.4), listed as flupentixol). Moreover, the RMW is given as 2.363 in data set [1] (setting [6]); 2.363±0.214 in data set [1] (RP-8F254 plates, 1,4-dioxane–TRIS buffer (pH 7.4), listed as flupentixol); 2.702 in data set [1] (setting [7]); 2.702±0.228 in data set [1] (RP-8F254 plates, acetone–TRIS buffer (pH 7.4), listed as flupentixol); −1.165 in data set [1] (setting [8]); -1.165±0.108 in data set [1] (RP-8F254 plates, acetonitrile–TRIS buffer (pH 7.4), listed as flupentixol). In addition, the RMW in data set [1] (setting [9]) is given as 2.468; in data set [1] (RP-18F254 plates, 1,4-dioxane–TRIS buffer (pH 7.4), listed as flupentixol) it was 2.468±0.246; in data set [1] (setting [10]) it was 2.762; in data set [1] (RP-18F254 plates, acetone–TRIS buffer (pH 7.4), listed as flupentixol) it was 2.762±0.175; in data set [1] (setting [11]) it was −1.058; in data set [1] (RP-18F254 plates, acetonitrile–TRIS buffer (pH 7.4), listed as flupentixol), -1.058±0.077. The logPexp in data set [2] is on record as 4.51.
As to `CN1CCN(CCCN2c3ccccc3Sc3ccc(C(F)(F)F)cc32)CC1` [Trifluoperazine, trifluoperazine], the RMW in data set [1] (setting [3]) is given as 3.333; in data set [1] (RP-2F254 plates, 1,4-dioxane–TRIS buffer (pH 7.4), listed as trifluoperazine) it was 3.333±0.328; in data set [1] (setting [4]), 3.348; in data set [1] (RP-2F254 plates, acetone–TRIS buffer (pH 7.4), listed as trifluoperazine), 3.348±0.250; in data set [1] (setting [5]), −0.568; in data set [1] (RP-2F254 plates, acetonitrile–TRIS buffer (pH 7.4), listed as trifluoperazine), -0.568±0.088. Besides, the RMW in data set [1] (setting [6]) was 2.547; in data set [1] (RP-8F254 plates, 1,4-dioxane–TRIS buffer (pH 7.4), listed as trifluoperazine), 2.547±0.277; in data set [1] (setting [7]), 2.754; in data set [1] (RP-8F254 plates, acetone–TRIS buffer (pH 7.4), listed as trifluoperazine) it was 2.754±0.209; in data set [1] (setting [8]) it was −1.023; in data set [1] (RP-8F254 plates, acetonitrile–TRIS buffer (pH 7.4), listed as trifluoperazine), -1.023±0.082. In addition, the RMW in data set [1] (setting [9]) was 2.580; in data set [1] (RP-18F254 plates, 1,4-dioxane–TRIS buffer (pH 7.4), listed as trifluoperazine), 2.580±0.271; in data set [1] (setting [10]) it was 2.714; in data set [1] (RP-18F254 plates, acetone–TRIS buffer (pH 7.4), listed as trifluoperazine) it was 2.714±0.200; in data set [1] (setting [11]), −0.810; in data set [1] (RP-18F254 plates, acetonitrile–TRIS buffer (pH 7.4), listed as trifluoperazine) it was -0.810±0.074. The logPexp in data set [2] is 5.03.
For `OCCN1CCN(CC/C=C2/c3ccccc3Sc3ccc(Cl)cc32)CC1` [Zuclopenthixol, zuclopenthixol], the RMW in data set [1] (setting [3]) is reported as 2.459; in data set [1] (RP-2F254 plates, 1,4-dioxane–TRIS buffer (pH 7.4), listed as zuclopenthixol), 2.459±0.130; in data set [1] (setting [4]), 2.529; in data set [1] (RP-2F254 plates, acetone–TRIS buffer (pH 7.4), listed as zuclopenthixol), 2.529±0.252; in data set [1] (setting [5]), 0.582±0.089; in data set [1] (setting [6]), 1.981. The RMW in data set [1] (RP-8F254 plates, 1,4-dioxane–TRIS buffer (pH 7.4), listed as zuclopenthixol) is listed as 1.981±0.189; in data set [1] (setting [7]) it was 2.206; in data set [1] (RP-8F254 plates, acetone–TRIS buffer (pH 7.4), listed as zuclopenthixol), 2.206±0.207; in data set [1] (setting [8]) it was −1.206; in data set [1] (RP-8F254 plates, acetonitrile–TRIS buffer (pH 7.4), listed as zuclopenthixol), -1.206±0.139; in data set [1] (setting [9]), 2.110. Moreover, the RMW in data set [1] (RP-18F254 plates, 1,4-dioxane–TRIS buffer (pH 7.4), listed as zuclopenthixol) is reported as 2.110±0.176; in data set [1] (setting [10]), 2.218; in data set [1] (RP-18F254 plates, acetone–TRIS buffer (pH 7.4), listed as zuclopenthixol), 2.218±0.238; in data set [1] (setting [11]) it was 2.411; in data set [1] (RP-18F254 plates, acetonitrile–TRIS buffer (pH 7.4), listed as zuclopenthixol), 2.411±0.454.
Regarding `OCCN1CCN(CCCN2c3ccccc3Sc3ccc(C(F)(F)F)cc32)CC1` [Fluphenazine, fluphenazine], the RMW is given as 2.653 in data set [1] (setting [3]); 2.653±0.058 in data set [1] (RP-2F254 plates, 1,4-dioxane–TRIS buffer (pH 7.4), listed as fluphenazine); 2.834 in data set [1] (setting [4]); 2.834±0.219 in data set [1] (RP-2F254 plates, acetone–TRIS buffer (pH 7.4), listed as fluphenazine); −0.777 in data set [1] (setting [5]); -0.777±0.074 in data set [1] (RP-2F254 plates, acetonitrile–TRIS buffer (pH 7.4), listed as fluphenazine). For the same compound, the RMW in data set [1] (setting [6]) is 2.340; in data set [1] (RP-8F254 plates, 1,4-dioxane–TRIS buffer (pH 7.4), listed as fluphenazine), 2.340±0.230; in data set [1] (setting [7]), 2.591; in data set [1] (RP-8F254 plates, acetone–TRIS buffer (pH 7.4), listed as fluphenazine) it was 2.591±0.210; in data set [1] (setting [8]), −1.230; in data set [1] (RP-8F254 plates, acetonitrile–TRIS buffer (pH 7.4), listed as fluphenazine) it was -1.230±0.164. Besides, the RMW is recorded as 2.454 in data set [1] (setting [9]); 2.454±0.279 in data set [1] (RP-18F254 plates, 1,4-dioxane–TRIS buffer (pH 7.4), listed as fluphenazine); 2.702 in data set [1] (setting [10]); 2.702±0.189 in data set [1] (RP-18F254 plates, acetone–TRIS buffer (pH 7.4), listed as fluphenazine); −0.995 in data set [1] (setting [11]); -0.995±0.098 in data set [1] (RP-18F254 plates, acetonitrile–TRIS buffer (pH 7.4), listed as fluphenazine). The logPexp in data set [2] is 4.36.
Take `CN(C)CCCN1c2ccccc2Sc2ccc(C(F)(F)F)cc21` [Triflupromazine, triflupromazine]: the RMW in data set [1] (setting [3]) is on record as 2.890; in data set [1] (RP-2F254 plates, 1,4-dioxane–TRIS buffer (pH 7.4), listed as triflupromazine) it was 2.890±0.232; in data set [1] (setting [4]), 3.046; in data set [1] (RP-2F254 plates, acetone–TRIS buffer (pH 7.4), listed as triflupromazine), 3.046±0.271; in data set [1] (setting [5]), −0.405; in data set [1] (RP-2F254 plates, acetonitrile–TRIS buffer (pH 7.4), listed as triflupromazine), -0.405±0.166. Moreover, the RMW in data set [1] (setting [6]) is given as 2.153; in data set [1] (RP-8F254 plates, 1,4-dioxane–TRIS buffer (pH 7.4), listed as triflupromazine), 2.153±0.213; in data set [1] (setting [7]) it was 2.690; in data set [1] (RP-8F254 plates, acetone–TRIS buffer (pH 7.4), listed as triflupromazine) it was 2.690±0.232; in data set [1] (setting [8]) it was −0.334; in data set [1] (RP-8F254 plates, acetonitrile–TRIS buffer (pH 7.4), listed as triflupromazine) it was -0.334±0.019. Further, the RMW is given as 2.342 in data set [1] (setting [9]); 2.342±0.261 in data set [1] (RP-18F254 plates, 1,4-dioxane–TRIS buffer (pH 7.4), listed as triflupromazine); 2.718 in data set [1] (setting [10]); 2.718±0.168 in data set [1] (RP-18F254 plates, acetone–TRIS buffer (pH 7.4), listed as triflupromazine); −0.361 in data set [1] (setting [11]); -0.361±0.084 in data set [1] (RP-18F254 plates, acetonitrile–TRIS buffer (pH 7.4), listed as triflupromazine).
